Source: PubChem BioAssay (NCI)
“And” between values parts separate entries of the source, which are not always exact repeats. Equal entries are not always repeated.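 Values below derive from 48-hour exposures of cells grown in 96-well plates, with endpoints linearly interpolated between the two concentrations bracketing the appropriate inhibition level. GI50 = concentration required for 50% inhibition of growth. The concentration for full growth arrest is given as TGI.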

How the values were obtained:
Experiment in all cases: NCI-60 cell line screen, 48 h
MOLT-4 leukemia = system: MOLT-4 leukemia
K-562 leukemia = system: K-562 leukemia
MALME-3M melanoma = system: MALME-3M melanoma
PC-3 prostate = system: PC-3 prostate
NCI/ADR-RES ovarian = system: NCI/ADR-RES ovarian
NCI-H460 lung = system: NCI-H460 lung
LOX IMVI melanoma = system: LOX IMVI melanoma
CCRF-CEM leukemia = system: CCRF-CEM leukemia
NCI-H226 lung = system: NCI-H226 lung
M14 melanoma = system: M14 melanoma

Row | SMILES | GI50 (MOLT-4 leukemia) | TGI (MOLT-4 leukemia) | GI50 (K-562 leukemia) | TGI (K-562 leukemia) | GI50 (MALME-3M melanoma) | TGI (MALME-3M melanoma) | GI50 (PC-3 prostate) | TGI (PC-3 prostate) | GI50 (NCI/ADR-RES ovarian) | TGI (NCI/ADR-RES ovarian) [µM] | GI50 (NCI-H460 lung) | TGI (NCI-H460 lung) | GI50 (LOX IMVI melanoma) | TGI (LOX IMVI melanoma) | GI50 (CCRF-CEM leukemia) | TGI (CCRF-CEM leukemia) | GI50 (NCI-H226 lung) | TGI (NCI-H226 lung) | GI50 (M14 melanoma) | TGI (M14 melanoma)
1 | COc1ccc(Cc2nc3cc(OC)c(OC)cc3c(=O)[nH]2)cc1 | 5.36 µM | > 59.6 µM | 34.3 µM | > 100 µM | 9.53 µM | 30.3 µM | 22 µM | > 100 µM | 12.4 µM | 59 | 15.3 µM | > 100 µM | 10.9 µM | > 100 µM | 6.53 µM | > 100 µM | 9.2 µM | > 100 µM | 4.13 µM | > 41.2 µM
2 | Nc1nc(=S)c2[nH]cnc2[nH]1 | 0.368 µM and 0.488 µM | – | 0.488 µM | 74.1 µM and 8.6 µM | 0.583 µM and 3.13 µM and 1.43 µM | 10.9 µM and 24.7 µM and 29.3 µM | 1.28 µM and 3.35 µM and 2.83 µM | > 100 µM and 185 µM and > 250 µM | 0.37 µM and 0.421 µM and 0.96 µM | – | 0.332 µM and 0.989 µM | 7 µM and 16.8 µM and 19.8 µM | 0.136 µM and 0.488 µM | 2.23 µM and 8.64 µM and 19.4 µM | 0.227 µM and 0.314 µM and 0.488 µM | – | 0.72 µM and 6.95 µM | > 59.5 µM and 106 µM and 102 µM | 0.413 µM and 0.677 µM | –
3 | COC(=O)c1ccc2[nH]c(O)c(C(=Nc3ccc(N(C)C(=O)CN4CCN(C)CC4)cc3)c3ccccc3)c2c1 | 0.389 µM | 4.56 µM | 0.241 µM | 11.9 µM | 1.43 µM | 2.86 µM | 1.04 µM | 25.5 µM | 9.36 µM | 36.4 | 1.87 µM | 5.09 µM | 0.552 µM | 1.92 µM | 0.666 µM | > 100 µM | 0.993 µM | 4.99 µM | 0.729 µM | 2.42 µM
4 | O=C1CCS/C(=N/S(=O)(=O)c2ccc(N3N=C4c5ccccc5CC4C3c3cccs3)cc2)N1Cc1ccccc1 (configuration not stated) | 47 µM | > 100 µM | > 100 µM | > 100 µM | – | – | 22.4 µM | 55.2 µM | 20.8 µM | 40.1 | > 100 µM | > 100 µM | 13.6 µM | 27.2 µM | 28 µM | 75.7 µM | 26.5 µM | 59.3 µM | 15.3 µM | 30.1 µM
5 | COC(=O)[C@]1(C)CCC[C@]2(C)[C@@H]1CCC13C[C@@H](C=CO1)[C@@H](C)CC32O (some centres not stated) | 24.5 µM | > 100 µM | 36.7 µM | > 100 µM | – | – | 38 µM | > 100 µM | > 100 µM | > 100 | 43.8 µM | > 100 µM | > 100 µM | > 100 µM | – | – | > 100 µM | > 100 µM | 50.3 µM | > 100 µM
6 | O=c1[nH]c2ccc([N+](=O)[O-])c(Cl)c2c2ccccc12 | – | 31.8 µM | – | > 100 µM | – | 27.6 µM | – | – | – | > 100 | – | 4.47 µM | – | > 100 µM | – | 24.1 µM | – | 43.9 µM | – | > 100 µM
7 | COc1cc2cc3c(c(O)c2c(O)c1-c1c(OC)cc2cc4c(c(O)c2c1O)C(=O)O[C@H](C)C4)C(=O)O[C@H](C)C3 | > 100 µM | > 100 µM | > 100 µM | > 100 µM | – | – | 35.8 µM | > 100 µM | 37.2 µM | > 100 | 16.8 µM | 56.8 µM | 18 µM | 44.6 µM | 25.3 µM | 67.7 µM | 32.7 µM | > 100 µM | 25.7 µM | 57 µM
8 | O=C(C(=O)c1cc(Br)ccc1O)c1cc(Br)ccc1O | 3.28 µM | 19.9 µM | 2.82 µM | > 100 µM | 2.24 µM | 6.12 µM | 3.13 µM | 15.7 µM | 3.36 µM | > 100 | – | – | 3.48 µM | 13.6 µM | 5.5 µM | > 100 µM | – | – | 4.96 µM | 20.1 µM
9 | CCOc1ccc(Nc2nc(-c3c(C)nc4ncccn34)cs2)cc1 | 0.0539 µM | 20.4 µM | < 0.01 µM | > 100 µM | – | – | 0.0185 µM | 17.5 µM | < 0.01 µM | 29.1 | 0.0305 µM | 12.5 µM | 0.0382 µM | 17.2 µM | 0.0291 µM | 17.3 µM | 2.81 µM | 22.6 µM | 0.017 µM | 13.6 µM
10 | CC1CC(C)C(C(O)CC2CC(=O)N(c3ccccc3)C(=O)C2)C(O)C1 (configuration not stated) | – | > 100 µM | – | > 100 µM | – | > 100 µM | – | – | – | – | – | > 100 µM | – | > 100 µM | – | > 100 µM | – | > 100 µM | – | > 100 µM
11 | C=CCN=C(N/N=C/c1ccc([N+](=O)[O-])o1)NS(=O)(=O)c1cc(C(=O)Nc2ccccc2)c(Cl)cc1SCC(N)=O | 13.4 µM | 43.9 µM | 9.16 µM | 49.8 µM | – | – | 33 µM | > 100 µM | > 100 µM | > 100 | 69.4 µM | > 100 µM | 17 µM | 42.1 µM | 5.73 µM | 27.6 µM | 30.8 µM | > 100 µM | 69.8 µM | > 100 µM
12 | Cc1nc2c(Br)cc(Br)cc2c(=O)n1-c1ccccc1NC1OCC(O)C(O)C1O (configuration not stated) | 19.5 µM and 3.5 µM | 61.1 µM and > 36.1 µM | 15.1 µM and > 32.7 µM | 46.6 µM and > 81.2 µM | – | > 100 µM | – | > 100 µM | 43.3 µM and > 100 µM | > 100 | – | – | – | 97.7 µM and > 51.3 µM | – | 56.7 µM and > 56.5 µM | 42.3 µM and 16.2 µM | > 100 µM and 48.9 µM | – | 46.7 µM and > 100 µM
13 | NC(=O)c1ncn(C2OC(CO)C(O)C2O)c1N (configuration not stated) | – | – | – | – | > 100 µM | > 100 µM | > 100 µM | > 100 µM | > 100 µM | > 100 | > 100 µM | > 100 µM | > 100 µM | > 100 µM | – | – | > 100 µM | > 100 µM | > 100 µM | > 100 µM
14 | CC(=O)OCC1OC(n2c(=S)n(-c3ccccc3)c(=O)c3cc(Br)cc(Br)c32)C(OC(C)=O)C(OC(C)=O)C1OC(C)=O (configuration not stated) | 36.8 µM | > 100 µM | – | > 100 µM | – | > 100 µM | – | – | – | – | – | > 100 µM | – | > 100 µM | – | > 100 µM | – | > 100 µM | 28.6 µM and > 100 µM | > 100 µM
15 | NC(N)=N/N=C/c1c(-c2ccncc2)nc2sc(Cl)cn12 | 2.83 µM | 7.26 µM | 2.96 µM | 13.3 µM | – | – | 5.8 µM | 18.8 µM | 35.5 µM | > 100 | 27.5 µM | > 59.2 µM | 3.03 µM | 9.55 µM | 2 µM | 4.58 µM | 3.98 µM | 15.2 µM | 6.54 µM | 14.7 µM
